Laboratory results: the supplement of paper PMC10307832

Experiments:
Assay in all cases: relative viability (nuclei count vs DMSO), 5 days (fraction); higher = more cells survive
KIN001-266 + Navitoclax = compound: CCN1CCC(CC1)N2C=C(N=N2)CNC3=CC4=C(C(=CN=C4C(=C3)Cl)C#N)NC5=CC(=C(C=C5)F)Cl [KIN001-266] + CC1(C)CCC(c2ccc(Cl)cc2)=C(CN2CCN(c3ccc(C(=O)NS(=O)(=O)c4ccc(N[C@H](CCN5CCOCC5)CSc5ccccc5)c(S(=O)(=O)C(F)(F)F)c4)cc3)CC2)C1 [Navitoclax] (partner 0.5 µM)
Method in brief: (§1)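 Lung cancer cell lines in 1536-well plates got either a single drug or a fixed anchor-drug dose together with five library-drug doses (not always all listed) in √10 steps, by pin tool, on the day after seeding. Nuclei were counted after 5 days, and relative viability is the treated-to-vehicle ratio of nuclei counts. Values are medians of duplicate plates.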

KIN001-266 + Crizotinib = compound: CCN1CCC(CC1)N2C=C(N=N2)CNC3=CC4=C(C(=CN=C4C(=C3)Cl)C#N)NC5=CC(=C(C=C5)F)Cl [KIN001-266] + C[C@@H](Oc1cc(-c2cnn(C3CCNCC3)c2)cnc1N)c1c(Cl)ccc(F)c1Cl [Crizotinib] (partner 1 µM)
Method in brief: as §1

KIN001-266 + Dasatinib = compound: CCN1CCC(CC1)N2C=C(N=N2)CNC3=CC4=C(C(=CN=C4C(=C3)Cl)C#N)NC5=CC(=C(C=C5)F)Cl [KIN001-266] + Cc1nc(Nc2ncc(C(=O)Nc3c(C)cccc3Cl)s2)cc(N2CCN(CCO)CC2)n1 [Dasatinib] (partner 0.075 µM)
Method in brief: as §1

KIN001-266 + Vorinostat = compound: CCN1CCC(CC1)N2C=C(N=N2)CNC3=CC4=C(C(=CN=C4C(=C3)Cl)C#N)NC5=CC(=C(C=C5)F)Cl [KIN001-266] + O=C(CCCCCCC(=O)Nc1ccccc1)NO [Vorinostat] (partner 1 µM)
Method in brief: as §1

Row | Cell Line | relative viability (KIN001-266 + Navitoclax; first compound 0.08 µM) | relative viability (KIN001-266 + Navitoclax; first compound 0.253 µM) | relative viability (KIN001-266 + Navitoclax; first compound 0.8 µM) | relative viability (KIN001-266 + Navitoclax; first compound 2.53 µM) | relative viability (KIN001-266 + Navitoclax; first compound 8 µM) | relative viability (KIN001-266 + Crizotinib; first compound 0.08 µM) | relative viability (KIN001-266 + Crizotinib; first compound 0.8 µM) | relative viability (KIN001-266 + Crizotinib; first compound 8 µM) | relative viability (KIN001-266 + Dasatinib; first compound 0.08 µM) | relative viability (KIN001-266 + Dasatinib; first compound 0.253 µM) | relative viability (KIN001-266 + Dasatinib; first compound 0.8 µM) | relative viability (KIN001-266 + Dasatinib; first compound 2.53 µM) | relative viability (KIN001-266 + Dasatinib; first compound 8 µM) | relative viability (KIN001-266 + Vorinostat; first compound 0.08 µM) | relative viability (KIN001-266 + Vorinostat; first compound 0.253 µM) | relative viability (KIN001-266 + Vorinostat; first compound 0.8 µM) | relative viability (KIN001-266 + Vorinostat; first compound 2.53 µM) | relative viability (KIN001-266 + Vorinostat; first compound 8 µM) | relative viability (KIN001-266 + Crizotinib; first compound 0.253 µM) | relative viability (KIN001-266 + Crizotinib; first compound 2.53 µM)
1 | LK-2 | 0.956 | 0.917 | 1.11 | 0.844 | 1.13 | 0.229 | 0.219 | 0.239 | 0.361 | 0.256 | 0.237 | 0.269 | 0.22 | 0.419 | 0.395 | 0.417 | 0.531 | 0.524 | – | –
2 | NCI-H1993 | 1.15 | 0.96 | 0.855 | 0.731 | 0.681 | 0.954 | 0.982 | 0.776 | 0.767 | 0.621 | 0.521 | 0.553 | 0.568 | 0.959 | 0.604 | 0.685 | 0.713 | 0.471 | 0.858 | 0.815
3 | NCI-H838 | 1.09 | 1.19 | 1.22 | 1.08 | 0.867 | 0.873 | 0.965 | 0.689 | 0.275 | 0.267 | 0.338 | 0.26 | 0.282 | 0.714 | 0.775 | 0.697 | 0.626 | 0.515 | 0.849 | 0.844
4 | NCI-H1437 | 1.09 | 1.11 | 1.08 | 1.12 | 0.911 | 0.896 | 0.924 | 0.779 | 0.413 | 0.421 | 0.346 | 0.369 | 0.249 | 0.931 | 0.841 | 0.797 | 0.841 | 0.572 | 0.973 | 0.891
5 | NCI-H2170 | 0.598 | 0.549 | 0.623 | 0.647 | 0.605 | 1.17 | 1.22 | 1.18 | 0.422 | 0.505 | 0.571 | 0.594 | 0.576 | 0.853 | 0.759 | 0.828 | 0.752 | 0.83 | 1.19 | 1.11
6 | NCI-H441 | 0.688 | 0.635 | 0.483 | 0.623 | 0.531 | 0.86 | 0.756 | 0.665 | 0.655 | 0.836 | 0.64 | 0.658 | 0.362 | 0.968 | 0.765 | 0.58 | 0.617 | 0.584 | 0.874 | 0.775
7 | SK-LU-1 | 0.677 | 0.465 | 1.11 | 0.839 | 0.512 | 1.13 | 0.963 | 0.557 | 0.192 | 0.19 | 0.172 | 0.197 | 0.195 | 0.833 | 0.799 | 0.783 | 0.776 | 0.518 | 0.997 | 0.763
8 | BEN | 0.064 | 0.0577 | 0.0627 | 0.0713 | 0.0844 | 0.756 | 0.948 | 1.04 | 0.296 | 0.362 | 0.292 | 0.274 | 0.345 | 0.607 | 0.531 | 0.601 | 0.559 | 0.635 | 0.815 | 0.811
9 | LC-2-ad | 0.763 | 0.429 | 0.473 | 0.415 | 0.479 | 0.43 | 0.377 | 0.429 | 0.661 | 0.533 | 0.626 | 0.8 | 0.632 | 0.644 | 0.721 | 0.655 | 0.788 | 0.704 | 0.546 | 0.447
10 | COR-L23 | 0.99 | 1.03 | 1.01 | 1.01 | 0.54 | 0.751 | 0.642 | 0.416 | 0.523 | 0.495 | 0.476 | 0.484 | 0.372 | 0.397 | 0.46 | 0.62 | 0.422 | 0.237 | 0.832 | 0.561
11 | NCI-H1650 | 1.09 | 1.1 | 1.23 | 1.15 | 0.985 | 1.14 | 1.11 | 0.61 | 0.313 | 0.356 | 0.238 | 0.288 | 0.224 | 0.566 | 0.622 | 0.668 | 0.488 | 0.337 | 0.911 | 0.817
12 | RERF-LC-KJ | 0.989 | 0.81 | 0.937 | 0.849 | 0.651 | 0.722 | 0.803 | 0.813 | 0.951 | 0.922 | 0.757 | 0.725 | 0.417 | 0.765 | 0.779 | 0.65 | 0.682 | 0.555 | 0.899 | 0.777
13 | NCI-H1915 | 0.766 | 0.79 | 0.74 | 0.758 | 0.742 | 0.895 | 0.902 | 0.851 | 0.369 | 0.316 | 0.357 | 0.396 | 0.292 | 0.499 | 0.484 | 0.534 | 0.509 | 0.544 | 0.87 | 0.918
14 | NCI-H596 | 1.02 | 0.857 | 0.92 | 1 | 0.785 | 0.989 | 0.895 | 0.925 | 0.607 | 0.586 | 0.539 | 0.583 | 0.63 | 0.745 | 0.599 | 0.682 | 0.636 | 0.558 | 1.21 | 1.08
15 | NCI-H2009 | 1.14 | 1.13 | 1.16 | 1.07 | 1.1 | 1.05 | 0.984 | 0.901 | 0.382 | 0.313 | 0.302 | 0.274 | 0.201 | 0.724 | 0.736 | 0.676 | 0.653 | 0.516 | 1.05 | 0.928
16 | NCI-H2126 | 0.844 | 0.86 | 0.863 | 0.813 | 0.855 | 1.04 | 0.965 | 1.08 | 0.656 | 0.631 | 0.599 | 0.624 | 0.589 | 0.809 | 0.783 | 0.751 | 0.732 | 0.694 | 1.02 | 1.05
